Results published in patent US7449480B2, “Small molecule inhibitors of HER2 expression” (Baylor College of Medicine, priority 2002, dated 2008).
“Also recorded” adds a separate entry of the source.

Legend:
[1] = test system: Her2-positive breast cancer cell lines (SK-BR3, MDA-MB453, and MCF-7); test: Growth and viability of Her2-positive breast cancer cell lines; assay type: cell-based, human; settings: SK-BR3, MDA-MB453, MCF-7, 24 hrs
Description: (§1) In contrast to the Her2-overexpressing cells, MDA-MB-468, a breast cancer cell line with no detectable levels of Her2, was resistant to TAT-ESX129-145 (FIGS. 5A and 5B). […] The effects of TAT-ESX129-145 on an MCF7 cell line stably transfected with the Her2 gene were examined.
(§2) The breast cancer cells were plated on 96-well plates at the density of 5×10^3 cells/well and maintained for 24 hrs. Adamanolol was added to the medium at varied concentrations and incubated for another 24 hrs. Premix WST-1 solution (Takara) was added to each well and incubated for 2 hrs. Cell viability was estimated by measuring absorbance at 450 nm with a SPECTRAmax microplate reader.

[2] = target: T1, ESX-Sur-2 interaction (Homo sapiens, UniProt Q9ULK4); test: Inhibition of the ESX-Sur-2 interaction in vitro (fluorescence of FITC-ESX129-145 with GST-Sur2352-625); assay type: binding; settings: for IC50: FITC-ESX129-145 (152 nM), GST-Sur2352-625 (212 nM); for inhibition of the ESX-Sur-2 interaction in vitro (in words): in vitro fluorescence assay
T1 construct: made in house
T1 sequence (Q9ULK4 352-625): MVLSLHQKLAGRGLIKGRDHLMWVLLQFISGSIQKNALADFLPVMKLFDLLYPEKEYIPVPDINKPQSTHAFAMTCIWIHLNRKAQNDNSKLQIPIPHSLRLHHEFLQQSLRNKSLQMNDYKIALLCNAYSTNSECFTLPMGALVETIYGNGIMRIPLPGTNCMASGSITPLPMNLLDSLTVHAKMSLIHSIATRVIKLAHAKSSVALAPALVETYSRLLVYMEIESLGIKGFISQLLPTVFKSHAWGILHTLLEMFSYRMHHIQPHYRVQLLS
Description: To monitor the ESX-DRIP130 interaction, we labeled ESX129-145 with fluorescein isothiocyanate (FITC; Pierce) at the Lys144 position and measured its fluorescence spectra upon adding the glutatathione-S′-transferase (GST) fusion of DRIP130352-625. ESX129-145 was synthesized by standard Fmoc chemistry (the NH2 terminus was capped by an acetyl group during the synthesis) and purified by HPLC. The peptide was then coupled with FITC at the Lys144 position in a conjugation buffer (100 mM carbonate-bicarbonate buffer, pH 9) in dark and purified by NAP-5 desalting column (Amersham). The labeled peptide was quantified by UV and visible absorbance.
GST-Sur-2352-625 was expressed and purified. Varied concentrations of the fusion protein were added to FITC-ESX129-145 (10 nM) in phosphate buffered saline containing 2% (v/v) ethanol, and the fluorescence spectra of FITC-ESX129-145 were measured by an ABI LS-50B Fluorescence Spectrometer (Ex: 490 nm). The dissociation constant of the interaction was estimated to be 12 μM through the emission perturbation at 522 nm.
To examine the effects of adamanolol on the interaction in vitro, the ethanol component of the binding buffer was replaced with an ethanolic solution of adamanolol. The fractions of FITC-ESX129-145 (10 nM) bound to 50 μM of GST-Sur-2352-625 were estimated by measuring fluorescence emission at 522 nm. ESX129-145 and pindolol were used as positive and negative controls, respectively.
In another series of derivatives (the R3 substituents in Table 1), the adamantane group of adamanolol was substituted (11a-d). […] The binding fractions were calculated on the basis of fluorescence spectra of FITC-ESX129-145 (152 nM) in presence of GST-Sur2352-625 (212 nM) and varied concentrations of each adamanolol derivative.

[3] = test system: BT474 cells; test: Animal study: BT474-derived tumors in mammary fat pads of nude mice; assay type: in vivo; settings: 20 mg/kg daily intraperitoneal, 5 consecutive days each week for two weeks
Description: Breast cancer cell lines derived from BT474 after one round (BT474M1) or two rounds (BT474M2) of tumorigenic selection were used. 5×10^6 cells were injected with Matrigel into mammary fat pads of nude mice. Two tumors were inoculated for each animal and each treatment group contained 5 animals. Five weeks after inoculation when the tumors were well established (about 100 mm^3 in average) the treatment started (day 0 in the figure). Each mouse received adamanolol (7QH2) at a daily dose of 20 mg/kg through intraperitoneal injection for 5 consecutive days in each week for two weeks. Tumor volumes were measured every three days. The percentile of the tumor volume related to the initial volume at day 0 was plotted for each time point. Adamanolol is a potent tumor growth inhibitor of HER-2/neu-overexpressing cancer cells in vivo.

[4] = test system: MDA-MB468; test: Growth and viability of Her2-negative MDA-MB468 cells; assay type: cell-based, human; settings: no detectable levels of Her2; 24 hrs
Description: as §1, §2

[5] = test system: SK-BR3 breast cancer cells; test: Cell viability assay (WST-1) in SK-BR3 breast cancer cells; assay type: cell-based, human; settings: for IC50: Homo sapiens, SK-BR-3, 48 hrs incubation, WST-1; for ability to kill SK-BR3 cells (biological activity, in words): compared with adamanolol
Description: SK-BR3 breast cancer cells were plated on 96-well plates at density of 5×10^3 cells/well and maintained for 24 hrs. The cells were then incubated with varied concentrations of each compound for 48 hrs, followed by addition of Premix WST-1 Solution (Takara). Cell viability was estimated by measuring absorbance at 450 nm after 1 hr with a SPECTRAmax microplatereader.

[6] = test system: ESX activation domain; test: Transcription reporter gene assay (GAL4 fusion, SEAP), ESX activation domain; assay type: cell-based, human
Description: (§3) Mammalian expression vectors each encoding the activation domain of ESX, VP16, or NFκBp65 fused with the GAL4 DNA-binding domain were used. Each expression construct was co-transfected to HEK293Tag human kidney cells together with a reporter plasmid in which the production of secreted alkaline phosphatase (SEAP) is under control of an IL-2 promoter carrying five GAL4 binding sites. After a 24 hour incubation in the presence or absence of adamanolol, an aliquot of the culture was assayed for SEAP activity. The total amounts of transfected DNA were normalized.
(§4) mammalian expression vectors, each encoding the activation domain of ESX, VP16, or NF-κB p65 fused with the GAL4 DNA-binding domain (amino acids 1-94), were used. Each expression construct was co-transfected to HEK293Tag human kidney cells together with a reporter plasmid in which the production of secreted alkaline phosphatase (SEAP) is under control of an IL2 promoter carrying five GAL4 binding sites. After 10-hr incubation with wrenchnolol (20 μM), an aliquot of the culture was assayed for SEAP activity.

[7] = test system: VP16 activation domain; test: Transcription reporter gene assay (GAL4 fusion, SEAP), VP16 activation domain; assay type: cell-based; settings: HEK293Tag cells, 24 hour incubation with adamanolol
Description: as §3, §4

[8] = test system: Her2; test: Her2 protein expression by western blot of cell lysates; assay type: cell-based, human; settings: SK-BR3 cells, 7.3 μM, 24 hrs; α-tubulin not reduced; listed as adamanolol
Excerpt: Sur-2 is a human homolog of […] elegans Sur-2, a protein of unknown function whose mutations suppress the phenotype of an activated ras mutation (Singh et al., 1995), and it has been linked to the transcription-activating function of the adenovirus E1A protein and the Elk-1 transcription factor. […] To test this, we designed a cell-permeable peptide that binds Sur-2 (referred to as TAT-ESX129-145). The design takes advantage of the binding affinity of ESX129-145 and the cell internalization property of the 11-aa peptide derived from the HIV TAT protein. We first examined whether TAT ESX129-145 reduces endogenous expression of the Her2 gene in three Her2-overexpressing breast cancer cell lines, SK-BR-3, MDA-MB-453, and […] (FIG. 4). Cells were incubated in the presence or absence of TAT-ESX129-145, and the protein levels of Her2 were examined by Western blot analyses of normalized amounts of cell lysates.
Her2-overexpressing SK-BR3 cells were treated by 7.3 μM of adamanolol for 24 hrs, and whole cell lysates were analyzed by western blots. […]
SK-BR3 cells were treated by 7 μM of wrenchnolol for 24 hrs, and whole cell lysates were analyzed by western blots. […]

[9] = Solubility in neutral aqueous solution; assay type: physicochemical
Description: When the amino group of the handle was protonated, wrenchnolol (7b) and its aminopropyl version (7a) became soluble up to ˜1 mM in neutral aqueous solution. The high water solubility enabled NMR analysis of these molecules in a buffered aqueous solution, and their proton signals were completely assigned through a combination of NOESY, DQF-COSY, and HOHAHA data sets (Table S1).

Row | SMILES | IC50 [2] [µM] | inhibition of the ESX-Sur-2 interaction in vitro (in words) [2] | IC50 [5] [µM] | ability to kill SK-BR3 cells (biological activity, in words) [5] | other results
1 | CC(C)N(CC(O)COc1cccc2[nH]ccc12)C(=O)N1CCC(C2CCN(C(=O)C34CC5CC(CC(C5)C3)C4)CC2)CC1 (stereo not drawn) [Compound 4a, 1′-(adamantane-1-carbonyl)-[4,4′]bipiperidinyl-1-carboxylic acid [2-hydroxy-3-3-(1H-indol-4-yloxy)-propyl]-isopropyl-amide] | 15.4 ± 0.3 | inhibits | 6.4 ± 1.8 |  | viability of Her2-positive breast cancer cell lines ([1]; listed as Adamanolol): impaired the viability; viability of Her2-positive breast cancer cell lines ([1]; listed as adamanolol): selectively impairs the cell growth and viability; tumor growth (tumor volume relative to day 0) [3]: significant growth suppression; viability of MDA-MB468 [4]: much milder effects; ability of the ESX activation domain to stimulate transcription ([6]; HEK293Tag cells, 24 hour incubation with adamanolol): impaired; also recorded: selectively inhibits; effect on the VP16 activation domain [7]: little effects; expression of Her2 protein [8]: significantly reduced; also recorded: inhibition of Her2
2 | CC(C)CN(CC(O)COc1cccc2[nH]ccc12)C(=O)N1CCC(C2CCN(C(=O)C34CC5CC(CC(C5)C3)C4)CC2)CC1 (stereo not drawn) [Compound 4b] | 15.1 ± 0.8 |  | 4.1 ± 0.2 |  | 
3 | O=C(NCC(O)COc1cccc2[nH]ccc12)N1CCC(C2CCN(C(=O)C34CC5CC(CC(C5)C3)C4)CC2)CC1 (stereo not drawn) [Compound 4d] | > 40 | abolished | > 100 | abolished; also recorded: little activity | ability of the ESX activation domain to activate the reporter gene ([6]; HEK293 cells, 20 μM, 10-hr incubation): almost no effects; also recorded: little effects
4 | CC(C)(C)OC(=O)NCCCN(CC(O)COc1cccc2[nH]ccc12)C(=O)N1CCC(C2CCN(C(=O)C34CC5CC(CC(C5)C3)C4)CC2)CC1 (stereo not drawn) [Compound 4e] | 11.9 ± 0.7 |  | 11.7 ± 0.1 |  | 
5 | Cc1ccc(S(=O)(=O)n2ccc3c(OCC(O)CN(C(=O)N4CCC(C5CCN(C(=O)C67CC8CC(CC(C8)C6)C7)CC5)CC4)C(C)C)cccc32)cc1 (stereo not drawn) [Compound 5a, N-tosyladamanolol] | 10 ± 1 | increased | 2.7 ± 0.3 | increased the potency | 
6 | CC(C)N(CC(O)COc1cccc2c1ccn2S(=O)(=O)c1cccc2cccnc12)C(=O)N1CCC(C2CCN(C(=O)C34CC5CC(CC(C5)C3)C4)CC2)CC1 (stereo not drawn) [Compound 5b] | 12 ± 0.9 |  | 5 ± 0.3 |  | 
7 | Cc1ccc(S(=O)(=O)n2ccc3c(OCC(O)CN(CCCN)C(=O)N4CCC(C5CCN(C(=O)C67CC8CC(CC(C8)C6)C7)CC5)CC4)cccc32)cc1 (stereo not drawn) [Compound 7a] | 10.2 ± 1.1 |  | 4.7 ± 0.1 |  | solubility [9]: ~1000 µM
8 | CC(=O)N1CCC(C2CCN(C(=O)N(CC(O)COc3cccc4[nH]ccc34)C(C)C)CC2)CC1 (stereo not drawn) [Compound 11a] | > 40 | almost no ability to block | > 100 | significant loss of the biological activity | 
9 | COCC(O)CN(C(=O)N1CCC(C2CCN(C(=O)C34CC5CC(CC(C5)C3)C4)CC2)CC1)C(C)C (stereo not drawn) [Compound 12a] | > 40 | abolished | > 100 | abolished | 
